Laboratory results taken from ChEMBL document CHEMBL6115017, “Discovery of DFV890, a Potent Sulfonimidamide-Containing NLRP3 Inflammasome Inhibitor” (J Med Chem, 2025).
Values after ≈ are worked out from the molar mass of the structure shown.

What was measured:
[1] = Half life in Sprague-Dawley rat at 5 mg/kg, po by LC-MS analysis; format: ADME, organism-based; conditions: in vivo
[2] = Clearance in Sprague-Dawley rat at 5 mg/kg, po by LC-MS analysis; format: ADME, organism-based; conditions: in vivo
[3] = Oral bioavailability in Sprague-Dawley rat at 5 mg/kg administered through oral gavage by LC-MS analysis; format: ADME, organism-based; conditions: in vivo
[4] = Volume of distribution at steady state in Sprague-Dawley rat at 5 mg/kg, po by LC-MS analysis; format: ADME, organism-based; conditions: in vivo
[5] = Solubility of the compound in PBS at pH 7.4; format: physicochemical
[6] = Fraction unbound in human plasma; format: ADME, cell-free
[7] = Fraction unbound in Sprague-Dawley rat plasma; format: ADME, cell-free
[8] = Metabolic stability in rat hepatocytes assessed as intrinsic clearance measured per 10^6 cells; format: ADME, cell-based, Hepatocyte; conditions: read-out: CLH
[9] = Metabolic stability in human hepatocytes assessed as intrinsic clearance measured per 10^6 cells; format: ADME, cell-based, Hepatocyte; conditions: read-out: CLH

| Structure (SMILES) | half-life [1] | CL/F [2] | bioavailability [3] | Vdss [4] | solubility [5] | fraction unbound [6] | fraction unbound [7] | hepatocyte CLint [8] | hepatocyte CLint [9] |
| --- | --- | --- | --- | --- | --- | --- | --- | --- | --- |
| CC(C)(O)c1coc(S(=O)(=O)NC(=O)Nc2c3c(cc4c2CCC4)CCC3)c1 | 0.635 h | 15.9 mL/min/kg | 47% | 0.271 L/kg | 1080 µg/mL (≈ 2680 µM) | 0.007 | 0.013 | – | – |
| CC(C)(O)c1nc([S@](N)(=O)=NC(=O)Nc2c3c(cc4c2CCC4)CCC3)cs1 | 2.36 h | 11.1 mL/min/kg | 100% | 0.541 L/kg | – | 0.057 | 0.05 | 5.4 µL/min/1e6 cells | 1.6 µL/min/1e6 cells |
| CC(C)(O)c1csc([S@](N)(=O)=NC(=O)Nc2c3c(cc4c2CCC4)CCC3)c1 | 2.91 h | 1.15 mL/min/kg | 50% | 0.191 L/kg | 24 µg/mL (≈ 57.2 µM) | 0.009 | 0.011 | 2.5 µL/min/1e6 cells | 3.6 µL/min/1e6 cells |
| CC(C)(O)c1ncc([S@](N)(=O)=NC(=O)Nc2c3c(c(F)c4c2CCC4)CCC3)s1 | 3.07 h | 1.08 mL/min/kg | 68% | 0.178 L/kg | 8 µg/mL (≈ 18.2 µM) | 0.003 | 0.007 | 3.7 µL/min/1e6 cells | 3 µL/min/1e6 cells |

The remaining lines, values ahead:

| half-life [1] | CL/F [2] | bioavailability [3] | Vdss [4] | solubility [5] | fraction unbound [6] | fraction unbound [7] | hepatocyte CLint [8] | hepatocyte CLint [9] | Structure (SMILES) |
| --- | --- | --- | --- | --- | --- | --- | --- | --- | --- |
| 2.6 h | 3.7 mL/min/kg | – | 0.29 L/kg | – | 0.009 | – | 5.2 µL/min/1e6 cells | 0.63 µL/min/1e6 cells | CC(C)(O)c1cnc([S@](N)(=O)=NC(=O)Nc2c3c(cc4c2CCC4)CCC3)s1 |
| 4.13 h | 3.21 mL/min/kg | 70% | 0.353 L/kg | – | 0.014 | 0.02 | 5.2 µL/min/1e6 cells | 4.2 µL/min/1e6 cells | CC(C)(O)c1csc([S@](N)(=O)=NC(=O)Nc2c3c(cc4c2CCC4)CCC3)n1 |
